Test results published in patent US8883410B2, “Method for determining the stability of organic methyleneamines in the presence of semicarbazide-sensitive amine oxidase” (Sanofi, priority 2007, dated 2014).

Target: T1, human SSAO T2 (Met211-Asn763), untagged (Homo sapiens, UniProt Q16853)
T1 construct: T2 (Met211-Asn763) Representing the Putative Catalytic Domain; expressed in transfected cells; cell lysate
T1 sequence (Q16853 211-763): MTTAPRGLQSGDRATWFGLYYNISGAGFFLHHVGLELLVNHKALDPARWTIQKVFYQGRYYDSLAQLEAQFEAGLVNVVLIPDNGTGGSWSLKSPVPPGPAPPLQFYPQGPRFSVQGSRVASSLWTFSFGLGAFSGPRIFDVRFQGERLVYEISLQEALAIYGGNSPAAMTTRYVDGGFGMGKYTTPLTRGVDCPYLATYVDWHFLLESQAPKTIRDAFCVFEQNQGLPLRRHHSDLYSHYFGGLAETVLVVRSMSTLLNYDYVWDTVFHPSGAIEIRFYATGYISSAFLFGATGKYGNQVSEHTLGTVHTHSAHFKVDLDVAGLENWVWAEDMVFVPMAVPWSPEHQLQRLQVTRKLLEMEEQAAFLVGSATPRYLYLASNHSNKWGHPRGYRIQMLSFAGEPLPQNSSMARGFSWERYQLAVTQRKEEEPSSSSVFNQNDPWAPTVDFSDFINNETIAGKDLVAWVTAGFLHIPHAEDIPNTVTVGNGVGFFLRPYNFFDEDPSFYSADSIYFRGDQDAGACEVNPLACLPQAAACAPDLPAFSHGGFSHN
Experiment: Benzylamine stability in lysate of cells expressing T2 SSAO (untagged), LC/MS/MS
Type: in vitro ADME
Details: tag None
Procedure: 4) T2 (Met211-Asn763) Representing the Putative Catalytic Domain.
The expression constructs were prepared by cloning these PCR products into the pCDNA5-FRT-To-DEST vector (Invitrogen, Gateway System™). The forward and reverse DNA sequence of each construct was confirmed including expressed sequences and at least 100 base pairs either side of this. Stable cell lines for Flp-In CHO, Flp-In CHO T-Rex, and Flp-In HEK 293 (Invitrogen, Flp-In system™) were generated using these 6 constructs according to manufacturer's instructions. Cells were co-transfected with the regulatory vector, pOG44, and each of the pCDNA5-FRT-To-DEST constructs using Lipfectamine (Invitrogen) according to manufacturer's instructions. Thus, 18 cell lines were generated: CHO Flp-In full-length SSAO; CHO Flp-In full-length SSAO with C-terminal 6×HIS tag; CHO Flp-In T1 SSAO; CHO Flp-In T1 SSAO with C-terminal 6×HIS tag; CHO Flp-In T2 SSAO; CHO Flp-In T2 SSAO with C-terminal 6×HIS tag; CHO T-Rex Flp-In full-length SSAO; CHO T-Rex Flp-In full-length SSAO with C-terminal 6×HIS tag; CHO T-Rex Flp-In T1 SSAO; CHO T-Rex Flp-In T1 SSAO with C-terminal 6×HIS tag; CHO T-Rex Flp-In T2 SSAO; CHO Flp-In T2 SSAO with C-terminal 6×HIS tag; HEK 293 Flp-In full-length SSAO; HEK 293 Flp-In full-length SSAO with C-terminal 6×HIS tag; HEK 293 Flp-In T1 SSAO; HEK 293 Flp-In T1 SSAO with C-terminal 6×HIS tag; HEK 293 Flp-In T2 SSAO; HEK 293 Flp-In T2 SSAO with C-terminal 6×HIS tag.
Adherent CHO cells were cultured at 37° C., 5% CO2 in media containing Ham's F12, 10% fetal bovine serum, 2 mM L-glutamine, 1% Penicillin/Streptomycin, 300 μM hygromycin B. Adherent HEK 293 cells were cultured at 37° C., 5% CO2 in D-MEM (high glucose), 10% fetal bovine serum, 2 mM L-glutamine, and 200 μM hygromycin B. Stable transformants were identified by loss of zeocin resistance. Once the cells were 80% confluent, SSAO expression was induced by the addition of Tetracycline to 1 μg/mL. Following 18 hours, the cells were harvested using a trypsin treatment of 3 minutes, at room temperature. Cells were washed 3 times in phosphate buffered saline before flash freezing in liquid nitrogen.
For the preparation of cell lysate for activity testing, frozen cell pellets were resuspended in lysate buffer containing 10 mM Tris-HCl (pH 7.2), 150 mM NaCl, 1.5 mM MgCl2, 1% v/v NP-40 and incubated for 15 minutes on ice. Lysate was cleared by centrifugation 800×g for 10 minutes, 4° C. and stored in aliquots at −80° C. until use. Proteins were determined using Pierce Coomassie Protein Reagent, according to manufacturer's instructions.
For each assay run, 1 mL of cell lysate (1.5 mg/mL protein) was mixed with benzylamine to 2000 ng/mL final concentration. At each corresponding time point, […] the incubation mixture was transferred to a microcentrifuge tube (1.7 mL) and mixed with 50 μL of acetonitrile. The tubes were vortex mixed briefly to ensure complete mixing and then centrifuged at 10,000×g for 5 minutes. The supernatant was removed and 50 μL was transferred to an autosampler vial and mixed with 50 μL of water before LC/MS/MS analysis. Benzylamine remaining in the lysate was analyzed with LC/MS/MS method.
LC/MS/MS analysis was performed with a PE Sciex API 3000 mass spectrometer under the following conditions listed below and in Tables 1 and 2: […]

Benzylamine Remaining (%) (CHO Flp-In T-Rex lysate, 0 min): 100%
Benzylamine Remaining (%) (CHO Flp-In T-Rex lysate, 10 min): 97%
Benzylamine Remaining (%) (CHO Flp-In T-Rex lysate, 2 h): 83%
Benzylamine Remaining (%) (CHO Flp-In lysate, 0 min): 100%
Benzylamine Remaining (%) (CHO Flp-In lysate, 10 min): 105%
Benzylamine Remaining (%) (CHO Flp-In lysate, 2 h): 98%
Benzylamine Remaining (%) (HEK293 lysate, 0 min): 100%
Benzylamine Remaining (%) (HEK293 lysate, 10 min): 113%
Benzylamine Remaining (%) (HEK293 lysate, 2 h): 101%
SMILES: NCc1ccccc1 [Benzylamine]
